Measurements: patent publication US10005771B2, “Bicyclic derivatives having β2 adrenergic agonist and M3 muscarinic antagonist activities” (Almirall, S.A., priority 2014, dated 2018)

Assays:
[1] = target: T1, human adrenergic β2 receptor (Homo sapiens, UniProt P07550); assay: Human adrenergic β2 receptor binding assay (3H-CGP12177, Sf9 membranes); conditions: membranes from Sf9 cells, 0.6 nM 3H-CGP12177, 60 minutes at room temperature
T1 construct: purchased Perkin Elmer; host or cells: Sf9 cells
Experimental: Test 1: Human Adrenergic β1 and β2 Receptor Binding Assays
The study of binding to human adrenergic beta1 and beta2 receptors was performed using commercial membranes prepared from Sf9 cells where they are overexpressed (Perkin Elmer). The membrane suspensions (16 μg/well for beta1 and 5 μg/well for beta2) in assay buffer (75 mM Tris/HCl with 12.5 mM MgCl2 and 2 mM EDTA pH=7.4) were incubated with 0.14 or 0.6 nM of 3H-CGP12177 (Amersham) for beta 1 and beta 2 receptors respectively in a final volume of 250 μl, in GFC Multiscreen 96 well plates (Millipore) previously treated with assay buffer containing 0.3% PEI (Sigma). Non specific binding was measured in the presence of 1 μM propanolol. Incubation was maintained for 60 minutes at room temperature and with gentle shaking. The binding reactions were terminated by filtration and washing with 2.5 volumes of Tris/HCl 50 mM pH=7.4. The affinity of each test compound to the receptor was determined by using ten different concentrations ran in duplicate. IC50s were calculated using Activity Base software from IDBS and the four parameters-log equation.

[2] = target: T2, human muscarinic M3 receptors (Homo sapiens, UniProt P20309); assay: Human muscarinic M3 receptors binding assay ([3H]-NMS, CHO-K1 membranes); conditions: membranes from CHO-K1 cells, [3H]-NMS radioligand, two hours incubation
T2 construct: purchased Perkin Elmer; host or cells: CHO-K1 cells
Experimental: Test 2: Human Muscarinic M3 Receptors Binding Assays
The study of binding to human muscarinic M3 receptors was performed using commercial membranes (Perkin Elmer) prepared from CHO-K1 cells.
Radioligand binding experiments were conducted in 96 polypropylene well plates in a total volume of 200 μl. All reagents were dissolved in assay binding buffer (PBS with calcium and magnesium, SIGMA), except compounds that were dissolved in DMSO 100%. Non-specific binding (NSB) was measured in the presence of 1 μM atropine. [3H]-NM, used as the radioligand was incubated with membranes that express human muscarinic M3 at concentration of 4.9 μg/well.
After an incubation period of two hours with gentle shaking, 150 μl of the reaction mix were transferred to 96 GF/C filter plates (Millipore), previously treated with wash buffer (Tris 50 mM; NaCl 100 mM; pH: 7.4), containing 0.05% PEI (Sigma) during one hour. Bound and free [3H]-NMS were separated by rapid vacuum filtration in a manifold from Millipore and washed four times with ice cold wash buffer. After drying 30 min, 30 μl of OPTIPHASE Supermix were added to each well and radioactivity quantified using a Microbeta microplate scintillation counter.
The affinity of each test compound to the receptor was determined by using ten different concentrations ran in duplicate. IC50s were calculated using Activity Base software from IDBS and the four parameters-log equation.

T1 sequence (P07550 whole entry): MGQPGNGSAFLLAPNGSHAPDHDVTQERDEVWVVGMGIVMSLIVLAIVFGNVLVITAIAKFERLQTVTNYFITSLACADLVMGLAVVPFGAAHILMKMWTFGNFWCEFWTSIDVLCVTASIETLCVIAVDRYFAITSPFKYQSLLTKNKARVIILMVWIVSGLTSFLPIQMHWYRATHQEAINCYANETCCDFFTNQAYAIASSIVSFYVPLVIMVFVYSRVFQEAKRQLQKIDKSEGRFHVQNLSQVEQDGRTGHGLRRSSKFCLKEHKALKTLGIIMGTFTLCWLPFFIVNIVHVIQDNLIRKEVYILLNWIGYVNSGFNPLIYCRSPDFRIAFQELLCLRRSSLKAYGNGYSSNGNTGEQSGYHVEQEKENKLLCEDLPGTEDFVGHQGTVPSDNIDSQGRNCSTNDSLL
T2 sequence (P20309 whole entry): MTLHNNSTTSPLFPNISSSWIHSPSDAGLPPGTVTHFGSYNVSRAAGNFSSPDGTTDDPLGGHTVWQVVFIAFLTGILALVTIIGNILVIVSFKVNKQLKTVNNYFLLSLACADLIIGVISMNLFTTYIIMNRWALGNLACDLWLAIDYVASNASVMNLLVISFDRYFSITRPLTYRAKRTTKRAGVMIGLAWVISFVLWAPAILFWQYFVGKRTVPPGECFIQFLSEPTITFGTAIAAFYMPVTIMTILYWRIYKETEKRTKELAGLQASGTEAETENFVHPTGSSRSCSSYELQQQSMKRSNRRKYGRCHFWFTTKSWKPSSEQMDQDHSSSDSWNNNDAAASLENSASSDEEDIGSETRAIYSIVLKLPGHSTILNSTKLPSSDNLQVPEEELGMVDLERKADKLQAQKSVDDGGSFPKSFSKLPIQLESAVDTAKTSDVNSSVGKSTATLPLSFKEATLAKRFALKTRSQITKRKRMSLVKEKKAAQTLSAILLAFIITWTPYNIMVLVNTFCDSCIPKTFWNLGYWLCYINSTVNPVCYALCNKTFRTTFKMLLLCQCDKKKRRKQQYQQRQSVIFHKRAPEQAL

SMILES	IC50 [1] [nM]	IC50 [2] [nM]
COc1cc(OCC(=O)OC2CCC(Cc3cccc(C4(C(=O)O[C@H]5CN6CCC5CC6)CCCCC4)c3)CC2)c(Cl)cc1CNC[C@H](O)c1ccc(O)c2[nH]c(=O)ccc12 (stereo partly drawn) [Example 14, (3R)-1-azabicyclo[2.2.2]oct-3-yl 1-(3-{[4-({[2-chloro-4-({[(2R)-2-hydroxy-2-(8-hydroxy-2-oxo-1,2-dihydroquinolin-5-yl)ethyl]amino}methyl)-5-methoxyphenoxy]acetyl}oxy)cyclohexyl]methyl}phenyl)cyclohexanecarboxylate]	9	7.1
O=C(CCCc1cccc(C2(C(=O)O[C@H]3CN4CCC3CC4)CCCCC2)c1)N[C@H]1CC[C@H](CNC[C@H](O)c2ccc(O)c3[nH]c(=O)ccc23)CC1 [Example 3, (3R)-1-azabicyclo[2.2.2]oct-3-yl 1-[3-(4-{[trans-4-({[(2R)-2-hydroxy-2-(8-hydroxy-2-oxo-1,2-dihydroquinolin-5-yl)ethyl]amino}methyl)cyclohexyl]amino}-4-oxobutyl)phenyl]cyclohexanecarboxylate]	4.2	1.7
O=C(CCCc1cccc(C2(C(=O)O[C@H]3CN4CCC3CC4)CCCCC2)c1)Nc1ccc(CNC[C@H](O)c2ccc(O)c3[nH]c(=O)ccc23)nc1 [Example 11, (3R)-1-azabicyclo[2.2.2]oct-3-yl 1-[3-(4-{[6-({[(2R)-2-hydroxy-2-(8-hydroxy-2-oxo-1,2-dihydroquinolin-5-yl)ethyl]amino}methyl)pyridin-3-yl]amino}-4-oxobutyl)phenyl]cyclohexanecarboxylate]	23	0.49
COc1cc(OCC(=O)OCCCc2cccc(C3(C(=O)O[C@H]4CN5CCC4CC5)CCCCC3)c2)c(Cl)cc1CNC[C@H](O)c1ccc(O)c2[nH]c(=O)ccc12 [Example 10, (3R)-1-azabicyclo[2.2.2]oct-3-yl 1-{3-[3-({[2-chloro-4-({[(2R)-2-hydroxy-2-(8-hydroxy-2-oxo-1,2-dihydroquinolin-5-yl)ethyl]amino}methyl)-5-methoxyphenoxy]acetyl}oxy)propyl]phenyl}cyclohexanecarboxylate]	7.3	0.88
COc1cc(C(=O)N(C)CCCc2cccc(C3(C(=O)O[C@H]4CN5CCC4CC5)CCCCC3)c2)c(Cl)cc1CNC[C@H](O)c1ccc(O)c2[nH]c(=O)ccc12 [Example 12, (3R)-1-azabicyclo[2.2.2]oct-3-yl 1-(3-{3-[[2-chloro-4-({[(2R)-2-hydroxy-2-(8-hydroxy-2-oxo-1,2-dihydroquinolin-5-yl)ethyl]amino}methyl)-5-methoxybenzoyl](methyl)amino]propyl}phenyl)cyclohexanecarboxylate]	10	2.1
O=C(CCCc1cccc(C2(C(=O)O[C@H]3CN4CCC3CC4)CCCCC2)c1)NCCCCCNC[C@H](O)c1ccc(O)c2[nH]c(=O)ccc12 [Example 7, (3R)-1-azabicyclo[2.2.2]oct-3-yl 1-(3-{4-[(5-{[(2R)-2-hydroxy-2-(8-hydroxy-2-oxo-1,2-dihydroquinolin-5-yl)ethyl]amino}pentyl)amino]-4-oxobutyl}phenyl)cyclo hexanecarboxylate]	6.7	1.5
COc1cc(NCC(=O)NCCCc2cccc(C3(C(=O)O[C@H]4CN5CCC4CC5)CCCCC3)c2)c(Cl)cc1CNC[C@H](O)c1ccc(O)c2[nH]c(=O)ccc12 [Example 30, (3R)-1-azabicyclo[2.2.2]oct-3-yl 1-{3-[3-({N-[2-chloro-4-({[(2R)-2-hydroxy-2-(8-hydroxy-2-oxo-1,2-dihydroquinolin-5-yl)ethyl]amino}methyl)-5-methoxyphenyl]glycyl}amino)propyl]phenyl}cyclohexanecarboxylate]	13	1.5
COc1cc(C(=O)NCCCCc2cccc(C3(C(=O)O[C@H]4CN5CCC4CC5)CCCCC3)c2)c(Cl)cc1CNC[C@H](O)c1ccc(O)c2[nH]c(=O)ccc12 [Example 9, (3R)-1-azabicyclo[2.2.2]oct-3-yl 1-[3-(4-{[2-chloro-4-({[(2R)-2-hydroxy-2-(8-hydroxy-2-oxo-1,2-dihydroquinolin-5-yl)ethyl]amino}methyl)-5-methoxybenzoyl]amino}butyl)phenyl]cyclohexanecarboxylate]	3.5	0.95
O=C1c2ccc(CNC[C@H](O)c3ccc(O)c4[nH]c(=O)ccc34)cc2CN1CCCCc1cccc(C2(C(=O)O[C@H]3CN4CCC3CC4)CCCCC2)c1 [Example 23, (3R)-1-azabicyclo[2.2.2]oct-3-yl 1-(3-{4-[5-({[(2R)-2-hydroxy-2-(8-hydroxy-2-oxo-1,2-dihydroquinolin-5-yl)ethyl]amino}methyl)-1-oxo-1,3-dihydro-2H-isoindol-2-yl]butyl}phenyl)cyclohexanecarboxylate]	26	0.61
COc1cc(NC(=O)CCCc2cccc(C3(C(=O)O[C@H]4CN5CCC4CC5)CCCCC3)c2)c(Cl)cc1CNC[C@H](O)c1ccc(O)c2[nH]c(=O)ccc12 [Example 2, (3R)-1-azabicyclo[2.2.2]oct-3-yl 1-[3-(4-{[2-chloro-4-({[(2R)-2-hydroxy-2-(8-hydroxy-2-oxo-1,2-dihydroquinolin-5-yl)ethyl]amino}methyl)-5-methoxyphenyl]amino}-4-oxobutyl)phenyl]cyclohexanecarboxylate]	3	0.22
COc1cc(NC(=O)CCCc2cccc(C3(C(=O)OCC45CCN(CC4)CC5)CCCCC3)c2)c(Cl)cc1CNC[C@H](O)c1ccc(O)c2[nH]c(=O)ccc12 [Example 18, 1-azabicyclo[2.2.2]oct-4-yl methyl 1-[3-(4-{[2-chloro-4-({[(2R)-2-hydroxy-2-(8-hydroxy-2-oxo-1,2-dihydroquinolin-5-yl)ethyl]amino}methyl)-5-methoxyphenyl]amino}-4-oxobutyl)phenyl]cyclohexanecarboxylate]	2.3	0.14
O=C(O[C@H]1CN2CCC1CC2)C1(c2cccc(CCCCn3c(=O)oc4cc(CNC[C@H](O)c5ccc(O)c6[nH]c(=O)ccc56)ccc43)c2)CCCCC1 [Example 1, (3R)-1-azabicyclo[2.2.2]oct-3-yl 1-(3-{4-[6-({[(2R)-2-hydroxy-2-(8-hydroxy-2-oxo-1,2-dihydroquinolin-5-yl)ethyl]amino}methyl)-2-oxo-1,3-benzoxazol-3(2H)-yl]butyl}phenyl)cyclohexanecarboxylate]	4.3	1.6
COc1cc(C(=O)NCCCc2cccc(C3(C(=O)O[C@H]4CN5CCC4CC5)CCCCC3)c2)c(Cl)cc1CNC[C@H](O)c1ccc(O)c2[nH]c(=O)ccc12 [Example 20, (3R)-1-azabicyclo[2.2.2]oct-3-yl 1-[3-(3-{[2-chloro-4-({[(2R)-2-hydroxy-2-(8-hydroxy-2-oxo-1,2-dihydroquinolin-5-yl)ethyl]amino}methyl)-5-methoxybenzoyl]amino}propyl)phenyl]cyclohexanecarboxylate]	3.8	0.14
COc1cc(OCC(=O)NCCCCc2cccc(C3(C(=O)O[C@H]4CN5CCC4CC5)CCCCC3)c2)c(Cl)cc1CNCC(O)c1ccc(O)c2[nH]c(=O)ccc12 (stereo partly drawn) [Example 24, (3R)-1-azabicyclo[2.2.2]oct-3-yl 1-{3-[4-({[2-chloro-4-({[2-hydroxy-2-(8-hydroxy-2-oxo-1,2-dihydroquinolin-5-yl)ethyl]amino}methyl)-5-methoxyphenoxy]acetyl}amino)butyl]phenyl}cyclohexanecarboxylate]	1.9	0.33
